From patent US6495133B1, “Gliocladium roseum strains useful for the control of fungal pathogens in plants” (priority 1998, dated 2002)
Like-named read-outs stand apart in the source and are kept apart here.

Key:
Fusarium solani = assay: Control of fusarium root rot in field pea, field experiments; assay type: in vivo
[1] = test system: Fusarium graminearum, Bipolaris sorokiniana, F. avenaceum, Alternaria alternata, and other Fusarium species (naturally infected seeds); assay type: in vivo
Fusarium oxysporium = assay: Control of fusarium wilt in field pea, field experiments; assay type: in vivo
Sclerotinia sclerotiorum = assay: Control of sclerotinia rot in field pea, field experiments; assay type: in vivo
Aphanomyces euteiches = assay: Control of aphanomyces root rot in field pea, field experiments; assay type: in vivo
Fusarium oxysporum = assay: Control of fusarium wilt in field pea, growth room experiments; details: Field pea (cv. Radley)
Protocol: In growth room experiments, seeds were planted in wood planting flats (35.5×47.0×9.0 cm) containing soil mixture of 2:1:1 of soil, perlite and peat moss. The soil mixture was pasteurized and mixed at about 2% v/v with artificially infested vermiculite that was moistened with 0.4% malt extract, autoclaved, inoculated with B. solani, and incubated at 20° C. for 7 days prior to the planting. […] For each treatment 100 seeds were planted in each of the 4-replicate flats. The planted flats were placed in a growth room maintained at 20° C. and with a 14-h photoperiod at 350 mol.m^−2.s^−1 light intensity by fluorescent and incandescent lamps. All experiments were arranged in a completely randomized block design. Emergence was counted 7 days after planting and other parameters were assessed after digging out plants 14 to 16 days after planting. Disease severity was rated on a scale of 0 (no visible lesions on lower stem and roots, seedling is well developed) to 9 (death of plant, the seedling died back quickly after emergence).

[2] = barley, average of the two cultivars

Q: Which Emergence (Fusarium solani; 1996, AC Tamor) does the source give for `CN(C)C(=S)SSC(=S)N(C)C` [Thiram, thiram] here?
A: 76.1 a

Q: What about the Yield (Fusarium solani; 1996, AC Tamor) of the same compound?
A: 5374 a

Q: And the Emergence (Fusarium solani; 1996, Radley)?
A: 81.4 a

Q: What about the Yield (Fusarium solani; 1996, Radley) of the same compound?
A: 3674 a

Q: And the Emergence (Fusarium solani; 1997, AC Tamor)?
A: 66.2 a

Q: And the Yield (Fusarium solani; 1997, AC Tamor)?
A: 5600 a

Q: And the Emergence (Fusarium solani; 1997, Radley)?
A: 65.7 b

Q: And the Yield (Fusarium solani; 1997, Radley)?
A: 3379 a

Q: What about the Dry wt. ([1]; Barley, Argyle) of the same compound?
A: 0.32 a g/plant

Q: What about the Emergence ([1]; Barley, Argyle) of the same compound?
A: 93.9 a %

Q: And the Fresh wt. ([1]; Barley, Argyle)?
A: 1.24 a g/plant

Q: What about the Root rot incidence ([1]; Barley, Argyle) of the same compound?
A: 10.8 b %

Q: What about the Root rot severity ([1]; Barley, Argyle) of the same compound?
A: 0.5 b 0-9

Q: What about the Dry wt. ([1]; Barley, Manley) of the same compound?
A: 0.22 a g/plant

Q: And the Emergence ([1]; Barley, Manley)?
A: 84.3 a %

Q: What about the Fresh wt. ([1]; Barley, Manley) of the same compound?
A: 1.04 a g/plant

Q: What about the Root rot incidence ([1]; Barley, Manley) of the same compound?
A: 77.8 a %

Q: What about the Root rot severity ([1]; Barley, Manley) of the same compound?
A: 4.2 ab 0-9

Q: And the Dry wt. ([1]; Wheat, Katepwa)?
A: 0.23 a g/plant

Q: What about the Emergence ([1]; Wheat, Katepwa) of the same compound?
A: 70.7 a %

Q: What about the Fresh wt. ([1]; Wheat, Katepwa) of the same compound?
A: 0.96 a g/plant

Q: And the Root rot incidence ([1]; Wheat, Katepwa)?
A: 12.5 ab %

Q: And the Root rot severity ([1]; Wheat, Katepwa)?
A: 0.7 ab 0-9

Q: What about the Dry wt. ([1]; Wheat, Plenty) of the same compound?
A: 0.16 a g/plant

Q: And the Emergence ([1]; Wheat, Plenty)?
A: 88.4 a %

Q: And the Fresh wt. ([1]; Wheat, Plenty)?
A: 0.79 a g/plant

Q: What about the Root rot incidence ([1]; Wheat, Plenty) of the same compound?
A: 10.1 b %

Q: And the Root rot severity ([1]; Wheat, Plenty)?
A: 0.6 b 0-9

Q: What about the Dry wt. ([1]; Wheat, Sceptre) of the same compound?
A: 0.14 a g/plant

Q: And the Emergence ([1]; Wheat, Sceptre)?
A: 52.4 a %

Q: And the Fresh wt. ([1]; Wheat, Sceptre)?
A: 0.65 a g/plant

Q: What about the Root rot incidence ([1]; Wheat, Sceptre) of the same compound?
A: 24.7 b %

Q: What about the Root rot severity ([1]; Wheat, Sceptre) of the same compound?
A: 1.1 b 0-9

Q: What about the “reduced root rot incidence by” value [1, 2] of the same compound?
A: 31%

Q: What about the “reduced root rot severity by” value [1, 2] of the same compound?
A: 38%

Q: And the Emergence (Fusarium oxysporium; 1996, AC Tamor)?
A: 78.3 a

Q: What about the Yield (Fusarium oxysporium; 1996, AC Tamor) of the same compound?
A: 5203 a

Q: What about the Emergence (Fusarium oxysporium; 1996, Radley) of the same compound?
A: 85.9 ab

Q: What about the Yield (Fusarium oxysporium; 1996, Radley) of the same compound?
A: 2442 a

Q: And the Emergence (Fusarium oxysporium; 1997, AC Tamor)?
A: 84.0 a

Q: What about the Yield (Fusarium oxysporium; 1997, AC Tamor) of the same compound?
A: 6625 a

Q: What about the Emergence (Fusarium oxysporium; 1997, Radley) of the same compound?
A: 63.8 ab

Q: What about the Yield (Fusarium oxysporium; 1997, Radley) of the same compound?
A: 5037 b

Q: And the Emergence (Sclerotinia sclerotiorum; 1996, AC Tamor)?
A: 41.8 a

Q: What about the Yield (Sclerotinia sclerotiorum; 1996, AC Tamor) of the same compound?
A: 4327 a

Q: And the Emergence (Sclerotinia sclerotiorum; 1996, Radley)?
A: 48.9 a

Q: And the Yield (Sclerotinia sclerotiorum; 1996, Radley)?
A: 2598 a

Q: And the Emergence (Sclerotinia sclerotiorum; 1997, AC Tamor)?
A: 49.7 a

Q: And the Yield (Sclerotinia sclerotiorum; 1997, AC Tamor)?
A: 5402 b

Q: What about the Emergence (Sclerotinia sclerotiorum; 1997, Radley) of the same compound?
A: 50.5 a

Q: What about the Yield (Sclerotinia sclerotiorum; 1997, Radley) of the same compound?
A: 5049 a

Q: And the Emergence (Aphanomyces euteiches; 1998, Carneval)?
A: 88.1 a

Q: What about the Yield (Aphanomyces euteiches; 1998, Carneval) of the same compound?
A: 6122 a

Q: What about the Emergence (Aphanomyces euteiches; 1998, Radley) of the same compound?
A: 91.9 a

Q: What about the Yield (Aphanomyces euteiches; 1998, Radley) of the same compound?
A: 5110 a

Q: And the Emergence (Aphanomyces euteiches; 1999, Carneval)?
A: 90.3 a

Q: And the Yield (Aphanomyces euteiches; 1999, Carneval)?
A: 4986 a

Q: And the Emergence (Aphanomyces euteiches; 1999, Radley)?
A: 81.0 a

Q: What about the Yield (Aphanomyces euteiches; 1999, Radley) of the same compound?
A: 4315 a

Q: What about the Dry wt. (Fusarium oxysporum) of the same compound?
A: 0.34 a g/plant

Q: What about the Emergence (Fusarium oxysporum) of the same compound?
A: 86.3 a %

Q: What about the Fresh wt. (Fusarium oxysporum) of the same compound?
A: 3.1 a g/plant

Q: And the Root rot severity (Fusarium oxysporum)?
A: 1.3 a 0-9
